Molecules are shown by their SMILES. Calls of active or inactive are those of the source. Cut-off read from the data, not from the text of the source, for most assays here: actives have a measured EC50 and inactives only a lower limit.

By IC50 is commonly meant the concentration at which inhibition is half-maximal. Usually EC50 stands for the concentration needed to bring the measured effect to its halfway point.

For experiment [1], the target named is T1, Apoptotic protease-activating factor 1 (Homo sapiens, UniProt O14727).
T1 sequence (O14727 whole entry): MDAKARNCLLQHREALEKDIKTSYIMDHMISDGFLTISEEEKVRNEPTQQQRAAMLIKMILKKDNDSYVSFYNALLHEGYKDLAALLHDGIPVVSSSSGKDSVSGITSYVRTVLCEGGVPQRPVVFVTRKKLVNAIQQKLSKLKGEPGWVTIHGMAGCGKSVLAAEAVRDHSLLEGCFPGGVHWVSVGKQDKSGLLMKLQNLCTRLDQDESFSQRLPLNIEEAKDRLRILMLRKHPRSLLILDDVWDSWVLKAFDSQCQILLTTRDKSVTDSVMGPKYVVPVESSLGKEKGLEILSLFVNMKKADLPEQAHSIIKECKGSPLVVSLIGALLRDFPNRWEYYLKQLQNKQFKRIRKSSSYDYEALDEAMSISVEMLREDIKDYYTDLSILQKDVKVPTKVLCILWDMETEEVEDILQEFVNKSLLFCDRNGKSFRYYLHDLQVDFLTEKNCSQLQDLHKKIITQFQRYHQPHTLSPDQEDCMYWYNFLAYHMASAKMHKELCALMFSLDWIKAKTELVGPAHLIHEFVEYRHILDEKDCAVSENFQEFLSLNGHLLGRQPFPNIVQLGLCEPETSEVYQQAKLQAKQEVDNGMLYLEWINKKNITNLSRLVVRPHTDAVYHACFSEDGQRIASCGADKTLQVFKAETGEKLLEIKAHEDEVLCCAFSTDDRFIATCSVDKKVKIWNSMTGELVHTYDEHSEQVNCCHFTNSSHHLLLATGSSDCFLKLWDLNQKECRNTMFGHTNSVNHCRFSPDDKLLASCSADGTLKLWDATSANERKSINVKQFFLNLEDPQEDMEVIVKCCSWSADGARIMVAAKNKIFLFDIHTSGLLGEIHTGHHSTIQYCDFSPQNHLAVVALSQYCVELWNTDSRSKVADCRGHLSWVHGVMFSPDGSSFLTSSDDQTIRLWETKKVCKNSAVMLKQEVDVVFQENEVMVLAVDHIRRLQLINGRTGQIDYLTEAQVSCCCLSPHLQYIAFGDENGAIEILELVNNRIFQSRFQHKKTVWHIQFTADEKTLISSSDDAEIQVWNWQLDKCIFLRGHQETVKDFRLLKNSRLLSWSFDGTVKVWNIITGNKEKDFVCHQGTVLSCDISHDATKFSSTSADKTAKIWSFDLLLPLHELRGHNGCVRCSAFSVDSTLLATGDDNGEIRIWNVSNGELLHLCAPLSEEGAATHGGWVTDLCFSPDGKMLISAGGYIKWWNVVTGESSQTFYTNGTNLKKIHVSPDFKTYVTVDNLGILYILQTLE
The class given is functional.

A short description of experiment [2]: Counterscreen for AddAB inhibitors: absorbance-based bacterial cell-based high throughput dose response assay for inhibitors of bacterial viability. [Related pubchem assays (depositor defined):AID435030, AID449728, AID449731, AID488942, AID488955, AID488956]. The class given is functional.
In experiment [3] the target is T2, Exodeoxyribonuclease V (Escherichia coli (strain K12), UniProt P04993+P07648+P08394).
T2 sequence (P04993 whole entry): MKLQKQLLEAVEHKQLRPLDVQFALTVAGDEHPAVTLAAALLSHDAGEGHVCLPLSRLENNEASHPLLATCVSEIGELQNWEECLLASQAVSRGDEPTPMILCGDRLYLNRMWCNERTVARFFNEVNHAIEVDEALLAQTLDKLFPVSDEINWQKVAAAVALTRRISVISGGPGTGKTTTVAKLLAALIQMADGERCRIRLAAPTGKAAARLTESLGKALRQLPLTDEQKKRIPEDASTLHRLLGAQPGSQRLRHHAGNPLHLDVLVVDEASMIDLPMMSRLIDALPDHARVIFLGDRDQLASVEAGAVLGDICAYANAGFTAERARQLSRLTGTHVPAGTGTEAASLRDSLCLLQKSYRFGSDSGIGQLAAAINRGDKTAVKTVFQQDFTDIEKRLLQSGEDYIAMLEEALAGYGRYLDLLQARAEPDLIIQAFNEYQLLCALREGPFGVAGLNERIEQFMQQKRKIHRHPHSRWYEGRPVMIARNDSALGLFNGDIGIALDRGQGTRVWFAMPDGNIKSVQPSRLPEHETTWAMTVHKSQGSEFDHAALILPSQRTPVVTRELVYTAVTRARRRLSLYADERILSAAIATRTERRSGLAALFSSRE
T2 sequence (P07648 whole entry): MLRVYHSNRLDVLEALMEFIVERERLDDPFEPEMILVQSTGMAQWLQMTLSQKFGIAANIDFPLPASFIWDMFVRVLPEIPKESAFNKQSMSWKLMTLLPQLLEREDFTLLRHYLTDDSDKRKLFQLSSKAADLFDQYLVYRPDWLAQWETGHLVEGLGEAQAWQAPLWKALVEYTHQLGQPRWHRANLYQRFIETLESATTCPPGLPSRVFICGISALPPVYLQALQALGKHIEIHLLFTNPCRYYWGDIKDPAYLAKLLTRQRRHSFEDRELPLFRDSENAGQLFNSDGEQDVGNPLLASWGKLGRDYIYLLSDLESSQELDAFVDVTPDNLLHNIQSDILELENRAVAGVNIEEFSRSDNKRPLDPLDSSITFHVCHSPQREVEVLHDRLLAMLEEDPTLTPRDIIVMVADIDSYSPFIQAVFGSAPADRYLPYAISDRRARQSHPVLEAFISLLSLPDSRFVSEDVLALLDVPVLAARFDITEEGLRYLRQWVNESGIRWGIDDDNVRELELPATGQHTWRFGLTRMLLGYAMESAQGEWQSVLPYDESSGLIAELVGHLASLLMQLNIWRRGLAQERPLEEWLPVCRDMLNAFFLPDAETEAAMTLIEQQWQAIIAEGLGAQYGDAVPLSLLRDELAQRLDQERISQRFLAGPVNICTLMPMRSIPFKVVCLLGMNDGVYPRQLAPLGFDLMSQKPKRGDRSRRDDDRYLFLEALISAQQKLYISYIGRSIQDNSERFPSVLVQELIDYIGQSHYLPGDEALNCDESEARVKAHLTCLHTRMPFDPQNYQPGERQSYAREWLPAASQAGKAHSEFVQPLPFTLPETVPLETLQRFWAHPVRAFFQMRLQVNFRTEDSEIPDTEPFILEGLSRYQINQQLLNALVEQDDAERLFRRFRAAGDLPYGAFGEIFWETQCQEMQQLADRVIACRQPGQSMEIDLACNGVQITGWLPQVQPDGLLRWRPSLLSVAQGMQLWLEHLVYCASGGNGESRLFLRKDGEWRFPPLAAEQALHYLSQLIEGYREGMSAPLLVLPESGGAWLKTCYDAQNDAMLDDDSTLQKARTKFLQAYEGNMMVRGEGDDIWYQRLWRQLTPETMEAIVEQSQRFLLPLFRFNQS
T2 sequence (P08394 whole entry): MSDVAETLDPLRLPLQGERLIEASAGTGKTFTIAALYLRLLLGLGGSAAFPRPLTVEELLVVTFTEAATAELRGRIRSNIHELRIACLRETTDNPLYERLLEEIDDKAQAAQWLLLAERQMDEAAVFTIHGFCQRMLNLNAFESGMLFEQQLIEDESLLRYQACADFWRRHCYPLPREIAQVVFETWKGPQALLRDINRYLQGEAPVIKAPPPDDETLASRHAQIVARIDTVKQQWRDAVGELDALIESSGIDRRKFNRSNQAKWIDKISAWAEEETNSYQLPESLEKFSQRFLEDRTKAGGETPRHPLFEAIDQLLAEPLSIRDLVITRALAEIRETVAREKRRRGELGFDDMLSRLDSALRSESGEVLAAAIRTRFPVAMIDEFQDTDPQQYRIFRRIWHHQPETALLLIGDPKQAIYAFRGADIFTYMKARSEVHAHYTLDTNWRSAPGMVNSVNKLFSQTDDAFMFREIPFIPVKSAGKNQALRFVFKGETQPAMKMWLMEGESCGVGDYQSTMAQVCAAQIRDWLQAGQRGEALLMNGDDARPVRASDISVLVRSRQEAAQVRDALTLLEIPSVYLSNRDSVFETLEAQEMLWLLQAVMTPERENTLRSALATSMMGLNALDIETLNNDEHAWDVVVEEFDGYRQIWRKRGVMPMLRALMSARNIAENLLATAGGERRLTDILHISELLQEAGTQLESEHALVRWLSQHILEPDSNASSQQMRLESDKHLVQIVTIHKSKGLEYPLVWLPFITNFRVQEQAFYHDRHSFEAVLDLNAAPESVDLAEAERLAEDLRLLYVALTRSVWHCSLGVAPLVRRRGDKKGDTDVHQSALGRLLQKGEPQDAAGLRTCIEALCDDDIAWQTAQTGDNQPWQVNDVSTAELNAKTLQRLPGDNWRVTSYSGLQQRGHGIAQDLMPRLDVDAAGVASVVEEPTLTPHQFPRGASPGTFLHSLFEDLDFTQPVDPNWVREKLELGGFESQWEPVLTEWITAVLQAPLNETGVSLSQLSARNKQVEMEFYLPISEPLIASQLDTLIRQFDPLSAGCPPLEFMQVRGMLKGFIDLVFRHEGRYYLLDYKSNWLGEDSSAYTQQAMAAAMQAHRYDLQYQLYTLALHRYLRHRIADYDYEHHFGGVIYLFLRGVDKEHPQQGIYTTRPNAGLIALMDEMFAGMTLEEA
The experiment in a line: E. coli RecBCD inhibitors, dose response, counter-screen for AddAB inhibitor project, absorbance, V66 E. coli, mutant T4 phage (AID 492957). The class given is functional, cell-based, Escherichia coli str. K-12 substr. MG1655.

A short description of experiment [4]: NIH-3T3 fibroblast cytotoxicity, dose response, cytotoxicity control, cell-based, fluorescence, Alamar Blue, secondary assay (AID 2327).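 Note: NIH-3T3 mouse fibroblasts cultured with fluconazole at 8 µg/mL.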 It is filed as functional. On the technique in general: Alamar Blue is a resazurin reagent that responds to reducing activity.
For experiment [5], the target named is ATP-dependent molecular chaperone HSP82 (Candida albicans (strain WO-1) (Yeast), UniProt C4YTQ8). The experiment is described as follows: loss of DOC-induced GRE-beta-galactosidase reporter signal, dose response, Hsp90 inhibitor project, S. cerevisiae, luminescence (AID 2400).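 Note: beta-galactosidase luminescence from glucocorticoid response element reporter as proxy for Hsp90 function; inhibitor potency where signal loss means Hsp90 inhibition.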 It is filed as functional, cell-based.
ATP-dependent molecular chaperone HSP82, sequence (C4YTQ8 whole entry): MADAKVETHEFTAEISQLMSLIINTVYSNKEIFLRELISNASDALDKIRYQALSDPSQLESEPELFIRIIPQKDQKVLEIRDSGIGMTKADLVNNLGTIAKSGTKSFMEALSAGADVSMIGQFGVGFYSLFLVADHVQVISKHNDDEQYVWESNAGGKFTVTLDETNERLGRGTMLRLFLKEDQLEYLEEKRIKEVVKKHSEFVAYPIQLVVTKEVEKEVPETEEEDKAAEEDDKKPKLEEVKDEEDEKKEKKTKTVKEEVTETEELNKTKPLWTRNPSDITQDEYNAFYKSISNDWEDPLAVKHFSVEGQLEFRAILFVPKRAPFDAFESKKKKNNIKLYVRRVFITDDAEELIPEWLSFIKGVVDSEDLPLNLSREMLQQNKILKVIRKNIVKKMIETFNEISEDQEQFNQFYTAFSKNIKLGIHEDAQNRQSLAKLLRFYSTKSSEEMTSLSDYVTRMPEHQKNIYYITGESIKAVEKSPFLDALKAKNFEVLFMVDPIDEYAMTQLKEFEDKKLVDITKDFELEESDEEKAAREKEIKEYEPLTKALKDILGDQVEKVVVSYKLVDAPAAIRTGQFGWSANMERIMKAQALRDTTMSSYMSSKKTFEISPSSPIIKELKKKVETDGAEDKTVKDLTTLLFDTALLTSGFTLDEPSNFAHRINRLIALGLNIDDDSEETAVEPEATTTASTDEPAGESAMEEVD
Experiment [6] in a line: C. albicans growth with fluconazole, confirmation, fluorescence, retest (AID 2467). The class given is functional, cell-based.
The target of experiment [7] is T3, Serine/threonine-protein phosphatase (Candida dubliniensis (strain CD36 / CBS 7987 / NCPF 3949 / NRRLY-17841) (Yeast), UniProt B9W6M3).
T3 sequence (B9W6M3 whole entry): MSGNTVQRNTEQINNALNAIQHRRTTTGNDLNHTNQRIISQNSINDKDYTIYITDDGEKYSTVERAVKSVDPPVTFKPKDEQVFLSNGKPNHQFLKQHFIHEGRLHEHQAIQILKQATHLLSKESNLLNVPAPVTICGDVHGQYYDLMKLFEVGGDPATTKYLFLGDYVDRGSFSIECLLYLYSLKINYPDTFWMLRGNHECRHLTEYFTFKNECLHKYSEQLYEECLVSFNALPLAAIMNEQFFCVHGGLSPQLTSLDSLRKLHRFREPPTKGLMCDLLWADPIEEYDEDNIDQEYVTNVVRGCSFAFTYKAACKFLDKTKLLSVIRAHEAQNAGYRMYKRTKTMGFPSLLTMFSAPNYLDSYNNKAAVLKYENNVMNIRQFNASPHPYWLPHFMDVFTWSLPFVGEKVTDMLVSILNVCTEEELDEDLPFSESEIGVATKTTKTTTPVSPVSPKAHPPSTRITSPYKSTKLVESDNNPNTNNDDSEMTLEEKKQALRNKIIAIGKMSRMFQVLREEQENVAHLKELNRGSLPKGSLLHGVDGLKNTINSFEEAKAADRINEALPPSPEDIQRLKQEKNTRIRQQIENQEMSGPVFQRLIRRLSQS
The experiment in a line: calcineurin pathway inhibitors in yeast reporter, dose response, S. cerevisiae, CDRE-lacZ, luminescence, secondary (AID 2388).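 Note: yeast reporter cells carrying a calcineurin-responsive lacZ construct stimulated with calcium chloride; luminescent beta-galactosidase reporter signal in whole cells rather than isolated phosphatase activity; potency for inhibition where a drop in reporter signal means calcineurin blockade.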 It is filed as functional, cell-based.

Turning to `COc1ccc(CC(=O)N(Cc2ccccc2)c2ccc(C)cc2)cc1S(=O)(=O)N1CCOCC1`, the IC50 in experiment [1] was 43.7 µM (active).

For the compound `CC(=O)NC1CCCN(O)C(=O)/C=C(\C)CCOC(=O)C(NC(C)=O)CCCN(O)C(=O)/C=C(\C)CCOC(=O)C(NC(C)=O)CCCN(O)C(=O)/C=C(\C)CCOC1=O` (configuration not stated), the IC50 in experiment [2] and in experiment [3] was > 119 µM (inactive) in each case. For the same compound, the EC50 is > 160 µM (inactive) in experiment [4], > 160 µM (inactive) in experiment [5], 0.742 µM (active) in experiment [6] and > 180 µM (inactive) in experiment [7].
